The text below walks through data of publication PMC9525908, “α-Crystallin chaperone mimetic drugs inhibit lens γ-crystallin aggregation: Potential role for cataract prevention” (The Journal of Biological Chemistry, 2022).

Holding throughout (format): biochemical
In assay [1] the target is T1, HγD-ox (Homo sapiens, UniProt P07320).
T1 construct: made in house; host or cells: Escherichia coli BL21(DE3) pLysS, pET3d vector
T1 sequence (P07320 1-174): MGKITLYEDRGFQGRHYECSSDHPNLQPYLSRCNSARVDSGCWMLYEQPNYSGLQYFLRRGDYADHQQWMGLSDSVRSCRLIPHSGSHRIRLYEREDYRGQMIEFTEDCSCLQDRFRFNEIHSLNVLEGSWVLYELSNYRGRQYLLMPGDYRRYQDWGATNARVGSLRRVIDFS
The experiment in a line: Turbidity (600 nm) of oxidized HγD heated 10 min at 72 °C. The note with it: 1.4 mg/ml with DTPA, 100 and 500 μM bis-ANS, 100 μM drug C, 500 μM drug M. From the text: (§1) In postsubmission experiments, we attempted to find mechanistic clues relevant to the use of an H2O2 oxidation step prior to the thermal stress used during the initial drug screen. For this reason, we did a comparative study of oxidized (HγD-ox) versus native HγD (HyD-nat), hypothesizing that bis-ANS would both act like the drugs and provide information on the role of exposed hydrophobicity ([40]). HγD was oxidized in diethylenetriaminepentaacetic acid […] phosphate buffer to facilitate hydroxyl radical formation and protein damage, followed by dialysis against DTPA-treated buffer to eliminate the known proaggregating effects of divalent metals ([32]) in the subsequent steps. […] Overall protective effects were more pronounced for the oxidized than nonoxidized form of HγD. […] In the hope to obtain clues on the impact of bis-ANS, drugs C, G, and M on protein aggregation status, native PAGE was performed (Fig. 3G). Polymers greater than 250 kD are present in unheated HγD-nat but only the size of 75 to 100 kD in HγD-ox. […] Other techniques will be needed to assess the relationship between drugs and aggregate size.

Assay [2] has as its target T1, HγD-ox. As to the kind of experiment: Thermal unfolding (Tm) of oxidized HγD. The conditions noted are these: 100 μM agent, 360/320 nm ratio; 68 ± 0.07 °C without agent.
Excerpt: as §1
(§2) Thermal denaturation study was monitored using fluorescence spectroscopy. Protein solutions (10 μM) in the presence and absence of drugs or bis-ANS (100 μM) were heated continuously from 30 to 95 °C, and the fluorescence data were collected every 5 °C after 1 min equilibration at the given temperature. Unfolding data were fit to Greene and Pace’s two-state model ([82]) using GraphPad Prism software (GraphPad Software, Inc).

For another assay, the target named is T2, WT-HγD crystallin (Homo sapiens, UniProt P07320).
T2 construct: made in house; host or cells: E. coli BL21(DE3) pLysS, pET3d vector
T2 sequence (P07320 1-174): T1 sequence (P07320 1-174)
As to the kind of experiment: Thermal unfolding of WT-HγD by fluorescence ratio (Tm). The note with it: 100 μM agent, 360/320 nm ratio; 78 ± 0.1 °C without agent.
Excerpt: His-tag free recombinant HγD crystallin produced in Escherichia coli using pET3d or pET17b expression vector was used to investigate the effects of compounds C and G against thermal-induced unfolding and aggregate formation. The antiaggregation potency of drug C and G was reconfirmed by dynamic light scattering (DLS) (Fig. 2A). […] There is a decrease in the size of aggregates from as high as 7261 nm without drugs to 30.5 nm with drug C and 84.9 nm with drug G. Drug M has moderate activity with mean aggregate size of 569 nm radius (Table S2). […] Furthermore, we investigated whether these drugs can prevent thermal unfolding of HγD (Fig. 2C). […] It is the temperature at which 50% of the protein unfolds.
as §2

“Also recorded” adds a separate entry of the source.

Take `O=S(=O)(O)c1cccc2c(-c3ccc(Nc4ccccc4)c4c(S(=O)(=O)O)cccc34)ccc(Nc3ccccc3)c12` [bis-ANS, bis-8-anilino-1-naphthalene sulfonic acid]: the “Effect on aggregation/turbidity of HγD-ox” value at HγD-ox [1] is listed as “strongly suppressed; also recorded: potently inhibited aggregation”. Moreover, on HγD-ox [2], the “Tm of HγD-ox” value was 78 ± 0.1 °C. Further, the “Tm of HγD-nat” value on WT-HγD crystallin came to 82 ± 0.02 °C.
